Target: T1, pKSI (Δ5-3-ketosteroid isomerase from Pseudomonas putida) (Pseudomonas putida, UniProt P07445, D40N)
T1 sequence (P07445 1-131 D40N): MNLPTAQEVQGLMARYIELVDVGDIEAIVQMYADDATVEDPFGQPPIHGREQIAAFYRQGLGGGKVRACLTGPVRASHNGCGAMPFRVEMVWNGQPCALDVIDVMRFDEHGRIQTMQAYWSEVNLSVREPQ
Test: fluorescence emission, linear combination of bound and free spectra
Assay type: binding

SMILES	Kd [µM]
COc1ccc2cc(O)ccc2c1 [6-methoxy-2-naphthol]	10 ± 5
N#Cc1ccc2cc(O)ccc2c1 [6-cyano-2-naphthol]	2 ± 1
Oc1ccc2cc(O)ccc2c1 [2,6-dihydroxynaphthalene]	20 ± 6
Oc1ccc2cc(Br)ccc2c1 [6-bromo-2-naphthol]	4 ± 1

Source: article PMC2852583 (Biochemistry, 2010)
